{
  "source": "patent US20130150346A1",
  "about": "“Use of FAAH Inhibitors for Treating Parkinson's Disease and Restless Legs Syndrome” (Ironwood Pharmaceutical, Inc., priority 2010, published 2013)",
  "key": {"FAAH": {"test_system": "FAAH", "experiment": "Plasma FAAH substrate levels (AEA, OEA, PEA) by LC-MS/MS in MPTP-lesioned marmosets treated with URB597", "type": "in vivo, common marmosets (Callithrix jacchus)", "protocol": "(§1) Six common marmosets (Callithrix jacchus; female; weight, 350-500 g (Harlan, Madison, Wis., USA)) were kept under conditions of controlled temperature (25±2° C.) and a 12-hour light/dark cycle (lights on 6:30 a.m.). Animals were group housed and had access to food, fresh-fruit supplements and water ad libitum and their home cage environment was enriched with primate toys, perches and auditory stimuli. Prior to start of studies, animals were acclimatized to handling, blood collection and administration of treatments (oral syringe feeding and subcutaneous injection) as well as transfer to observation cages for assessment of behavior. A parkinsonian syndrome was induced by once-daily subcutaneous administration of MPTP hydrochloride (Sigma, Canada; 2 mg/kg base concentration in 0.9% saline) for 5 consecutive days. Following this, animals were allowed to recover for 12 weeks to allow parkinsonian symptoms to develop and stabilize. […] Treatment-related complications including dyskinesia and psychosis-like behaviors were evoked by twice-daily treatment with L-DOPA p.o. (as Prolopa®, Roche Canada, Ontario, equivalent to 15 mg/kg L-DOPA and 3.5 mg/kg benserazide) for a minimum of 30 days. […] Disord. 21:839-846; Visanji et al. (2008) Mov. Disord. 23:1922-1925; Visanji et al (2009) Neurobiol Dis. 35: 184-192]. After this time, the animals were used in several studies to evaluate potential anti-parkinsonian and anti-dyskinetic agents. A minimum period of two weeks was allowed between completing any prior study and commencing this study, a period in excess of ten half-lives since administration of any previously employed experimental drug. Throughout the course of the study, on days not requiring plasma sampling or behavioral observations, animals were treated once daily with oral L-DOPA therapy, given at 10:00 a.m. to maintain stable levels of complications. Marmosets treated with MPTP as described in this example are referred to as MPTP-lesioned marmosets.\n(§2) MPTP hydrochloride (Sigma, Canada) was dissolved in 0.9% NaCl sterile solution to a concentration of 0.2 mg/ml (freebase) and administered at 1 ml/kg. Maintenance L-DOPA, administered as Prolopa® capsules (Roche, Mississauga, ON, Canada) containing 50 mg L-DOPA and 12.5 mg benserazide (freebase) was dissolved in Gatorade sports beverage (The Gatorade Company, Chicago, Ill.) prior to oral administration by syringe at a volume of 10 ml/kg. On days of behavioral assessment, L-DOPA (20 mg/kg, freebase) was prepared from the methyl ester form (Sigma, Canada) in combination with benserazide hydrochloride (5 mg/kg, freebase, Sigma, Canada) dissolved in 0.9% sterile saline containing 0.1% ascorbate (Sigma, Canada) and 0.05% absolute ethanol. URB597 (Cayman Chemical, Ann Arbor, Mich.) was formulated in a vehicle containing 50% corn oil (Professional Compounding Centers of America (PCCA), Houston, Tex.) and 50% nutritional drink Ensure™ (Abbott Nutrition, Chicago, Ill.) to make the suspension palatable for marmoset oral dosing. Requisite amounts of URB597 were weighed into sterile 50 ml polypropylene tubes (for the 3, 10, 30 and 60 mg/kg doses, 12, 40, 120 and 240 mg were weighed respectively). Then, 10 ml Corn oil was added and mixed until homogenous. Next, 10 ml Ensure™ was added and the mixture mixed gently at first, vortexed and finally sonicated (Ultrasonic Dismembrator, Fisher Scientific model 100, ⅛″) on a medium setting for 30 sec to ensure homogeneity of the suspension. URB597 or vehicle was dosed orally at a volume of 5 ml/kg body weight.\nThe effect of oral treatment of MPTP-lesioned marmosets with either vehicle or URB597 (3, 10, 30 or 60 mg/kg) on plasma levels of specific endogenous FAAH substrates was assessed. Levels of the endocannabinoid AEA, in addition to the non-cannabinoid fatty acid amides N-palmitoyl-ethanolamide (PEA) and N-oleoyl-ethanolamide (OEA), were measured by LC-MS/MS assays (described below)."}, "MPTP-lesioned marmosets": {"test_system": "MPTP-lesioned marmosets", "experiment": "Rating of parkinsonian disability, dyskinesia and psychosis in MPTP-lesioned marmosets", "type": "in vivo, common marmosets (Callithrix jacchus)", "protocol": "as §1\nTo assess the effect of treatment on plasma FAAH substrate level, total activity, high activity time and count, data were analyzed using a parametric repeated-measures (RM) 1-way analysis of variance (ANOVA) followed by a Student Newman-Keuls Multiple Comparison post hoc test. To assess the effect of treatment on plasma L-DOPA level a paired, two-tailed t-test was used. All FAAH (AEA, OEA, PEA) subbstrate and L-DOPA plasma level data and activity data are presented as the group mean and SEM For measures of parkinsonian disability, dyskinesia and psychosis, data were analyzed via Friedman's test with Dunn's Multiple Comparison post hoc test. […] In all cases, p<0.05 was taken to represent a significant difference.\nas §2, with “homogenous.” for “homogenous. Next, 10 ml Ensure™ was added and the mixture mixed gently at first, vortexed and finally sonicated (Ultrasonic Dismembrator, Fisher Scientific model 100, ⅛″) on a medium setting for 30 sec to ensure homogeneity of the suspension. URB597 or vehicle was dosed orally at a volume of 5 ml/kg body weight.”"}, "[1]": {"conditions": "URB597 10 mg/kg p.o. (two doses), four hours after oral administration, mean±SEM, n=6"}, "[2]": {"conditions": "mean of the 4 doses studied (3, 10, 30, 60 mg/kg p.o.) ±SEM"}, "[3]": {"conditions": "URB597 10 mg/kg p.o. + L-DOPA 20 mg/kg s.c., 2-4 h, p>0.05 cf. L-DOPA alone"}},
  "data": [
    {"compound": "NC(=O)c1cccc(-c2cccc(OC(=O)NC3CCCCC3)c2)c1", "note": "[URB597]", "values": [
      {"measurement": "mean plasma level of AEA", "setting": "FAAH; [1]", "result": "5.0 ± 0.45", "unit": "ng/mL"},
      {"measurement": "mean plasma level of OEA", "setting": "FAAH; [1]", "result": "7.7 ± 0.78", "unit": "ng/mL"},
      {"measurement": "mean plasma level of PEA", "setting": "FAAH; [1]", "result": "7.0 ± 0.27", "unit": "ng/mL"},
      {"measurement": "FAAH inhibition suggested by fatty acid amide elevations (no dose response)", "setting": "FAAH; all four doses 3 mg/kg to 60 mg/kg p.o.", "result": "complete inhibition of FAAH at all dose levels studied"},
      {"measurement": "mean fold change of plasma AEA compared to vehicle treatment", "setting": "FAAH; [2]", "result": "10.3±0.3", "unit": "fold"},
      {"measurement": "mean fold change of plasma OEA compared to vehicle treatment", "setting": "FAAH; [2]", "result": "7.8±0.2", "unit": "fold"},
      {"measurement": "mean fold change of plasma PEA compared to vehicle treatment", "setting": "FAAH; [2]", "result": "1.8±0.1", "unit": "fold"},
      {"measurement": "level of psychosis", "setting": "MPTP-lesioned marmosets; URB597 10 mg/kg p.o. + L-DOPA 20 mg/kg s.c., 2-4 h", "result": "mild to moderate"},
      {"measurement": "effect of URB597 on L-DOPA-induced dyskinesia", "setting": "MPTP-lesioned marmosets; [3]", "result": "did not modify"},
      {"measurement": "effect of URB597 on L-DOPA-induced psychosis", "setting": "MPTP-lesioned marmosets; [3]", "result": "did not modify"},
      {"measurement": "effect of URB597 on anti-parkinsonian actions of L-DOPA", "setting": "MPTP-lesioned marmosets; [3]", "result": "did not modify"},
      {"measurement": "dyskinesia score (median)", "setting": "MPTP-lesioned marmosets; URB597 10 mg/kg p.o. + L-DOPA 20 mg/kg s.c., summed 2-4 h, IQR 13-29, n=6", "result": 18},
      {"measurement": "parkinsonian disability score (median)", "setting": "MPTP-lesioned marmosets; URB597 10 mg/kg p.o. + L-DOPA 20 mg/kg s.c., summed 2-4 h, maximum 432, IQR 65-114, n=6", "result": 78},
      {"measurement": "effect on parkinsonian disability, dyskinesia or psychosis cf. vehicle", "setting": "MPTP-lesioned marmosets; URB597 10 mg/kg p.o. given alone (vehicle s.c.), p>0.05", "result": "did not modify"}
    ]}
  ]
}
